From patent publication US5622962A, “5α-reductase inhibitors” (priority 1995, dated 1997)
Where two headings read alike, the source gives them in different places.

What was measured:
[1] = target: T1, Type I 5α-Reductase from Human Scalp (Homo sapiens, UniProt P18405); assay: Human Type I 5α-reductase assay (conversion of [3H]-testosterone to 5α-reduced metabolites); type: biochemical
T1 construct: Scalp punch biopsies from graft recipient sites were obtained from human hair transplant procedures; from tissue; host or cells: human scalp punch biopsies (hair transplant graft recipient sites), homogenate, 100,000×g pellet
T1 sequence (P18405 1-259): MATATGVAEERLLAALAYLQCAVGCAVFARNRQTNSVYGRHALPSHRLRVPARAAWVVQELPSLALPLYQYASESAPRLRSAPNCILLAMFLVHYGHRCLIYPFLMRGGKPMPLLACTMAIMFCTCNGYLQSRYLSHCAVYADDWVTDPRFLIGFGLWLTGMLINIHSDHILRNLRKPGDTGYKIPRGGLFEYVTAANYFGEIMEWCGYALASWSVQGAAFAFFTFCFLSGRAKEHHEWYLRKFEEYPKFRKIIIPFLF

[2] = target: T2, Type II 5α-Reductase from Human Prostate (Homo sapiens, UniProt P31213); assay: Human Type II 5α-reductase assay (conversion of [3H]-testosterone to 5α-reduced metabolites); type: biochemical
T2 construct: The same procedure as above was used for preparations using tissue from prostate surgery; from tissue; host or cells: human prostate tissue from surgery, homogenate, 100,000×g pellet
T2 sequence (P31213 1-254): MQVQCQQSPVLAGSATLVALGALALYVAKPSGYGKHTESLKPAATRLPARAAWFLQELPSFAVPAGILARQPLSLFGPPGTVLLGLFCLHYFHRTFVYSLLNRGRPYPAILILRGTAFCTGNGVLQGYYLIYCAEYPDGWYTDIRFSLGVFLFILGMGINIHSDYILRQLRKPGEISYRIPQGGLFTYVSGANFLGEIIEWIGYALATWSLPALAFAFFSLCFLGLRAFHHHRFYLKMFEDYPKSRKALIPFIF

[3] = pH 7.5, 0.3 μM, 50 nM [3H]-testosterone, pH 7.5, 25°, 180 min, compared to control reaction mixtures, read-out: percent inhibition of Type I AR
[4] = pH 5.5, 0.3 μM, sodium acetate pH 5.5, 25°, 30 min, compared to control reaction mixtures, read-out: percent inhibition of Type II AR

Row | inhibition at 0.3 µM [1, 3] | percent inhibition of Type II AR ([2]; 0.3 μM, sodium acetate pH 5.5, 25°, 30 min, compared to control reaction mixtures) | inhibition at 0.3 µM [2, 4] | Compound | inhibition at 0.3 µM ([1]; pH 7.5, read-out: percent inhibition of Type I AR) | inhibition at 0.3 µM ([2]; pH 5.5, read-out: percent inhibition of Type II AR)
1 | 64% | 92% | 90% | CN1C(=O)CC[C@]2(C)c3ccc(Sc4nc5ccccc5s4)cc3CC[C@@H]12 [Example 112, (4aR)-(10bR)-4,10b-dimethyl-8-(2-benzothiazolylthio)-1,2,3,4,4a,5,6,10b-octahydrobenzo[f]quinolin-3-one] |  | 
2 | 70% |  | 51% | CN1C(=O)CC[C@]2(C)c3ccc(Sc4nccc5ccccc45)cc3CC[C@@H]12 [Example 113, (4aR)-(10bR)-4,10b-dimethyl-8-(1-isoquinolinylthio)-1,2,3,4,4a,5,6,10b-octahydrobenzo[f]quinolin-3-one] |  | 
3 | 55% |  | 47% | CN1C(=O)CC[C@]2(C)c3ccc(Sc4cncc5ccccc45)cc3CC[C@@H]12 [Example 114, (4aR)-(10bR)-4,10b-dimethyl-8-(4-isoquinolinylthio)-1,2,3,4,4a,5,6,10b-octahydrobenzo[f]quinolin-3-one] |  | 
4 | 31% |  | 20% | CN1C(=O)CC[C@]2(C)c3ccc(Sc4ccncc4)cc3CC[C@@H]12 [Example 115, (+)-(4aR)-(10bR)-4,10b-dimethyl-8-(4-pyridinylthio)-1,2,3,4,4a,5,6,10b-octahydrobenzo[f]quinolin-3-one] |  | 
5 | 46% |  | 49% | CN1C(=O)C=C[C@]2(C)c3ccc(-c4cccc5ccccc45)cc3CC[C@@H]12 [Example 117, (+)-(4aR)-(10bR)-4-methyl-8-(1-naphthyl)-10b-methyl-3,4,4a,5,6,10b-hexahydrobenzo[f]quinolin-3-one] |  | 
6 | 25% |  | 43% | CN1C(=O)C=C[C@]2(C)c3ccc(-c4cccc([N+](=O)[O-])c4)cc3CC[C@@H]12 [Example 118, (+)-(4aR)-(10bR)-4-methyl-8-(3-nitrophenyl)-10b-methyl-3,4,4a,5,6,10b-hexahydrobenzo[f]quinolin-3-one] |  | 
7 | 93% |  | 37% | CSc1ccc(-c2ccc3c(c2)CC[C@H]2N(C)C(=O)CC[C@]32C)cc1 [Example 120, (+)-(4aR)-(10bR)-4-methyl-8-(4-methylthiophenyl)-10b-methyl-1,2,3,4,4a,5,6,10b-octahydrobenzo[f]quinolin-3-one] |  | 
8 | 10% |  | 27% | CNS(=O)(=O)c1ccc(-c2ccc3c(c2)CC[C@H]2N(C)C(=O)CC[C@]32C)cc1 [Example 123] |  | 
9 | 23% |  | 32% | CN1C(=O)CC[C@]2(C)c3ccc(-c4ccccc4[N+](=O)[O-])cc3CC[C@@H]12 [Example 124, (+)-(4aR)-(10bR)-4-methyl-8-(2-nitrophenyl)-10b-methyl-1,2,3,4,4a,5,6,10b-octahydrobenzo[f]quinolin-3-one] |  | 
10 | 64% |  | 36% | CN1C(=O)CC[C@]2(C)c3ccc(-c4ccccc4C#N)cc3CC[C@@H]12 [Example 125, (+)-(4aR)-(10bR)-4-methyl-8-(2-cyanophenyl)-10b-methyl-1,2,3,4,4a,5,6,10b-octahydrobenzo[f]quinolin-3-one] |  | 
11 | 85% |  | 43% | CN1C(=O)CC[C@]2(C)c3ccc(-c4ccc(COc5ccccc5)s4)cc3CC[C@@H]12 [Example 126, (+)-(4aR)-(10bR)-4-methyl-8-(2-[5-(phenoxymethyl)thienyl])-10b-methyl-1,2,3,4,4a,5,6,10b-octahydrobenzo[f]quinolin-3-one] |  | 
12 | 82% |  | 40% | CN1C(=O)CC[C@]2(C)c3ccc(-c4cc(F)c(F)cc4F)cc3CC[C@@H]12 [Example 128, (+)-(4aR)-(10bR)-4-methyl-8-(2,4,5-trifluorophenyl)-10b-methyl-1,2,3,4,4a,5,6,10b-octahydrobenzo[f]quinolin-3-one] |  | 
13 | 91% |  | 36% | CN1C(=O)CC[C@]2(C)c3ccc(-c4ccc(COc5ccc(F)cc5)s4)cc3CC[C@@H]12 [Example 129, (+)-(4aR)-(10bR)-4-methyl-8-(2-[5-(4-fluorophenoxy-methyl)thienyl])-10b-methyl-1,2,3,4,4a,5,6,10b-octahydrobenzo[f]-quinolin-3-one] |  | 
14 | 83% |  | 29% | CN1C(=O)CC[C@]2(C)c3ccc(-c4cc(F)cc(F)c4F)cc3CC[C@@H]12 [Example 130, (+)-(4aR)-(10bR)-4-methyl-8-(2,3,5-trifluorophenyl)-10b-methyl-1,2,3,4,4a,5,6,10b-octahydrobenzo[f]quinolin-3-one] |  | 
15 | 57% |  | 44% | CN1C(=O)CC[C@]2(C)c3ccc(-c4ccc5c(c4)Cc4ccccc4-5)cc3CC[C@@H]12 [Example 131, (+)-(4aR)-(10bR)-4-methyl-8-(2-fluorenyl)-10b-methyl-1,2,3,4,4a,5,6,10b-octahydrobenzo[f]quinolin-3-one] |  | 
16 | 87% |  | 24% | CN1C(=O)CC[C@]2(C)c3ccc(-c4cc(Cl)sc4Cl)cc3CC[C@@H]12 [Example 132, (+)-(4aR)-(10bR)-4-methyl-8-(3-[2,5-dichlororo]thienyl)-10b-methyl-1,2,3,4,4a,5,6,10b-octahydrobenzo[f]quinolin-3-one] |  | 
17 |  |  |  | CN1C(=O)CC[C@]2(C)c3ccc(-c4ccc([N+](=O)[O-])cc4C(F)(F)F)cc3CC[C@@H]12 [Example 133, (+)-(4aR)-(10bR)-4-methyl-8-(4-nitro-2-trifluoromethylphenyl)-10b-methyl-1,2,3,4,4a,5,6,10b-octahydrobenzo[f]-quinolin-3-one] | 77% | 34%
18 | 97% |  | 46% | CN1C(=O)CC[C@]2(C)c3ccc(-c4ccc(C(F)(F)F)cc4[N+](=O)[O-])cc3CC[C@@H]12 [Example 134, (+)-(4aR)-(10bR)-4-methyl-8-(2-nitro-4-trifluoromethylphenyl)-10b-methyl-1,2,3,4,4a,5,6,10b-octahydrobenzo[f]-quinolin-3-one] |  | 
19 | 92% |  | 31% | CN1C(=O)CC[C@]2(C)c3ccc(-c4c(F)c(F)c(Cl)c(F)c4F)cc3CC[C@@H]12 [Example 135, (+)-(4aR)-(10bR)-4-methyl-8-(4-chloro-2,3,5,6-tetrafluorophenyl)-10b-methyl-1,2,3,4,4a,5,6,10b-octahydrobenzo[f]-quinolin-3-one] |  | 
20 | 100% |  | 32% | CN1C(=O)CC[C@]2(C)c3ccc(SCc4ccccc4)cc3CC[C@@H]12 [Example 136, (4aR)-(10bR)-8-benzylthio-4,10b-dimethyl-1,2,3,4,4a,5,6, 10b-octahydrobenzo[f]quinolin-3-one] |  | 
21 | 90% |  | 37% | CN1C(=O)CC[C@]2(C)c3ccc(CSc4ccccc4)cc3CC[C@@H]12 [Example 137, (4aR)-(10bR)-8-phenylthiomethyl-4,10b-dimethyl-1,2,3,4,4a,5,6,10b-octahydrobenzo[f]quinolin-3-one] |  | 
22 | 88% |  | 26% | CN1C(=O)CC[C@]2(C)c3ccc(CSc4nc5ccccc5s4)cc3CC[C@@H]12 [Example 138, (4aR)-(10bR)-8-(2-benzothiazole)thiomethyl-4,10b-dimethyl-1,2,3,4,4a,5,6,10b-octahydrobenzo[f]quinolin-3-one] |  | 
23 | 30% |  | 59% | CN1C(=O)CC[C@]2(C)c3ccc(C(c4ccccc4)c4ccccc4)cc3CC[C@@H]12 [Example 139, (4aR)-(10bR)-8-diphenylmethyl-4,10b-dimethyl-1,2,3,4,-4a,5,6,10b-octahydrobenzo[f]quinolin-3-one] |  | 
24 | 63% |  | 18% | CN1C(=O)CC[C@]2(C)c3ccc(C(=O)Nc4ccccc4)cc3CC[C@@H]12 [Example 143, (+)-(4aR)-(10bR)-4-methyl-8-(phenylcarboxamido)-10b-methyl-1,2,3,4,4a,5,6,10b-octahydrobenzo[f]quinolin-3-one] |  | 
25 | 90% |  | 40% | CN1C(=O)CC[C@]2(C)c3ccc(C(=O)OCc4ccccc4)cc3CC[C@@H]12 [Example 144, (+)-(4aR)-(10bR)-4-methyl-8-benzyloxycarbonyl-10b-methyl-1,2,3,4,4a,5,6,10b-octahydrobenzo[f]quinolin-3-one] |  | 
26 | 85% |  | 41% | CN1C(=O)CC[C@]2(C)c3ccc(C(=O)Oc4ccccc4)cc3CC[C@@H]12 [Example 145, (+)-(4aR)-(10bR)-4-methyl-8-phenoxycarbonyl-10b-methyl-1 2,3,4,4a,5,6,10b-octahydrobenzo[f]quinolin-3-one] |  | 
